Measured values: PMC9203742 (Nature Communications, 2022)
Several values for one entry are separate records, joined by “and”; a condition that tells them apart may be missing. Equal values may be shown once.

Key:
mGlu1 K61H/N264H mutant = target: T1, mGlu1 K61H/N264H mutant (Rattus norvegicus, UniProt P23385, K61H/N264H); experiment: Fura-2 Ca2+ imaging in HEK293 cells expressing mGlu1 K61H/N264H; assay type: cell-based
T1 construct: expressed in transfected cells; host or cells: HEK293

mGlu1 A59H/N264H mutant = target: T2, mGlu1 A59H/N264H mutant (Rattus norvegicus, UniProt P23385, A59H/N264H); experiment: Fura-2 Ca2+ imaging in HEK293 cells expressing mGlu1 A59H/N264H; assay type: cell-based
T2 construct: expressed in transfected cells; host or cells: HEK293

mGlu1(N264H) mutant = target: T3, mGlu1(N264H) mutant (Rattus norvegicus, UniProt P23385, N264H); experiment: Inositol-1-phosphate (IP1) accumulation assay, HEK293 cells expressing mGlu1(N264H); assay type: cell-based
T3 construct: expressed in transfected cells; host or cells: HEK293

[1] = test system: HEK293 cells, control vector; experiment: Inositol-1-phosphate (IP1) accumulation assay, HEK293 cells transfected with control vector; assay type: cell-based; conditions: 30 µM Pd(bpy); Vec
primary cortical neurons = experiment: Fura-2 Ca2+ imaging (abnormal Ca2+ response) in cultured cortical neurons
mGlu1 P57H/N264H mutant = target: T4, mGlu1 P57H/N264H mutant (Rattus norvegicus, UniProt P23385, N264H/P57H); experiment: Fura-2 Ca2+ imaging in HEK293 cells expressing mGlu1 P57H/N264H; assay type: cell-based; conditions: single-cell values #1-#20; P57H/N264H
T4 construct: expressed in transfected cells; host or cells: HEK293

PC12 cells = experiment: Cell proliferation assay of undifferentiated PC12 cells; conditions: for cell proliferation, Ave (Fig.4c): average of #1-#3
[2] = HEK293 cells, Fura-2, read-out: EC50, Ca2+ response (Δratio)

T2 sequence (P23385 19-1199 A59H/N264H): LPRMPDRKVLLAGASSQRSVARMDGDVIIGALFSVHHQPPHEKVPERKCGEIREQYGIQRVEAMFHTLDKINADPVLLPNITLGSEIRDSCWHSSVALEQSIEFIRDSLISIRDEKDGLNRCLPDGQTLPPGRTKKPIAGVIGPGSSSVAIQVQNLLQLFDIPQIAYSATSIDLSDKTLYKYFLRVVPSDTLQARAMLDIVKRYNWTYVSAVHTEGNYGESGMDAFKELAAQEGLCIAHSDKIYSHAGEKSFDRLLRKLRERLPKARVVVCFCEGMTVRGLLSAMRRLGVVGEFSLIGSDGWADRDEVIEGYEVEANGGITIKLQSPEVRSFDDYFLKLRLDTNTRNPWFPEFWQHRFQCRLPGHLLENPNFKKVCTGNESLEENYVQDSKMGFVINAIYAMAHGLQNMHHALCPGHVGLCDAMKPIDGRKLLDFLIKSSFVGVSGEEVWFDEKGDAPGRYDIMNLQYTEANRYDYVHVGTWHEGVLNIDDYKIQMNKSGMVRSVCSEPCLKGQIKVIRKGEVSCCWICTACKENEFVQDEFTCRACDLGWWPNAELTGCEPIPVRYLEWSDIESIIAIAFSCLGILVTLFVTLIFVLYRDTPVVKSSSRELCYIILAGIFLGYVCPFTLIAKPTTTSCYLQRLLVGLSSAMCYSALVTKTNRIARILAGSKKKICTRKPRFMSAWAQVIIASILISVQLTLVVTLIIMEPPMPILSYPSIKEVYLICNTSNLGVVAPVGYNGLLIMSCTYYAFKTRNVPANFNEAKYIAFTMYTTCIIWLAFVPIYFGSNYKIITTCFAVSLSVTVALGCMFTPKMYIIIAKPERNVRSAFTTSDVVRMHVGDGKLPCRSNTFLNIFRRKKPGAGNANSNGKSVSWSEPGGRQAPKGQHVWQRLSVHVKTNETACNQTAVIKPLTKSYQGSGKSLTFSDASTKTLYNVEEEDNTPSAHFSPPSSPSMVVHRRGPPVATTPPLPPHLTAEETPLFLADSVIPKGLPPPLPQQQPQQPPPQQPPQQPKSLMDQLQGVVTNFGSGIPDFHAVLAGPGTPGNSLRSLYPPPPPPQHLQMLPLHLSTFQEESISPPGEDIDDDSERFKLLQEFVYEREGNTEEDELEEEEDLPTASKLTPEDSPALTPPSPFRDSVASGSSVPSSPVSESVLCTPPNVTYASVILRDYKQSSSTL
T4 sequence (P23385 19-1199 P57H/N264H): as the sequence (P23385 19-1199 A59H/N264H) above, with P39H, H41A counted along it
T1 sequence (P23385 19-1199 K61H/N264H): as the sequence (P23385 19-1199 A59H/N264H) above, with H41A, K43H counted along it
T3 sequence (P23385 19-1199 N264H): as the sequence (P23385 19-1199 A59H/N264H) above, with H41A counted along it

## O=[N+]([O-])[O-].O=[N+]([O-])[O-].[Pd+2].c1ccc(-c2ccccn2)nc1 [Pd(bpy), Pd(bpy)(NO3)2]
mGlu1 K61H/N264H mutant; [2]
  EC50: 2.3 µM
mGlu1 K61H/N264H mutant; single-cell values, K61H/N264H
  Ca2+ response of individual cells (source data Suppl Fig1), K61H/N264H: 0.2703 and 0.5297 and 0.971 and -0.1576 and 0.5357 and 0.5344 and 1.086 and 1.005 and 0.6767 and 0.2693 and 0.4514 and -0.009392 and 0.06739 and -0.01372
mGlu1 A59H/N264H mutant; [2]
  EC50: 3.8 µM
mGlu1 A59H/N264H mutant; single-cell values #1-#20, A59H/N264H
  Ca2+ response of individual cells (source data Suppl Fig1), A59H/N264H: 0.6362 and 0.8074 and 0.5582 and 0.806 and 0.7717 and -0.01028 and 0.5677 and 0.7063 and 0.5602 and 0.7126 and 0.6578 and 1.118 and 1.1499 and 0.77 and 0.5325 and 0.4993 and 0.7176 and 0.6258 and 0.8578 and 0.6525
mGlu1(N264H) mutant; 30 µM Pd(bpy), N264H
  IP1 accumulation, single experiments: 1.924 and 2.4034 and 1.9034 and 1.783
mGlu1(N264H) mutant; Pd(bpy) 30 µM / 10 μM (method)
  IP3 production evaluated by IP1 accumulation: increased
[1]
  IP1 accumulation, single experiments: 1.069 and 0.9695 and 0.8004
Primary cortical neurons; 1 µM Pd complex
  abnormal Ca2+ response, ave (Fig.4d): 0.03652
Primary cortical neurons; 3 µM Pd complex
  abnormal Ca2+ response, ave (Fig.4d): -0.0001233
Primary cortical neurons; 10 μM
  [Ca2+]i elevation (abnormal Ca2+ response): gradual [Ca^2+]i elevation was observed
Primary cortical neurons; 10 µM Pd complex
  abnormal Ca2+ response, ave (Fig.4d): 0.1988
Primary cortical neurons; 30 μM
  [Ca2+]i elevation (abnormal Ca2+ response): more prominent
Primary cortical neurons; 30 µM Pd complex
  abnormal Ca2+ response, ave (Fig.4d): 2.468
Primary cortical neurons; 100 µM Pd complex
  abnormal Ca2+ response, ave (Fig.4d): 3.162
Primary cortical neurons; 300 µM Pd complex
  abnormal Ca2+ response, ave (Fig.4d): 3.458
mGlu1 P57H/N264H mutant
  Ca2+ response of individual cells (source data Suppl Fig1), P57H/N264H: 1.496 and 0.4197 and 0.3632 and 0.5618 and 0.3459 and 0.2699 and 0.5435 and -0.005777 and 0.04309 and 0.04215 and 0.5777 and 1 and 0.77 and 0.6187 and 0.5778 and -0.002723 and 0.1859 and 0.08165 and 0.3295 and 0.5272
PC12 cells; 30 μM
  Cell growth: clearly suppressed
PC12 cells; Pd complex 1 µM
  cell proliferation, single experiments #1-#3 (Fig.4c): 1.5318 and 0.8604 and 0.8836
  cell proliferation, Ave (Fig.4c): 1.092
PC12 cells; Pd complex 3 µM
  cell proliferation, single experiments #1-#3 (Fig.4c): 1.071 and 0.9613 and 0.8889
  cell proliferation, Ave (Fig.4c): 0.9739
PC12 cells; Pd complex 10 µM
  cell proliferation, single experiments #1-#3 (Fig.4c): 1.234 and 0.8888 and 0.7605
  cell proliferation, Ave (Fig.4c): 0.961
PC12 cells; Pd complex 30 µM
  cell proliferation, single experiments #1-#3 (Fig.4c): 0.9447 and 0.7842 and 0.619
